Columns and labels:
[1] = target: T1, Human COX-2 (Homo sapiens, UniProt P35354); assay: Assay for COX-1 and COX-2 activity (PGE2 ELISA, recombinant enzyme), COX-2; type: biochemical; settings: Table I; pre-incubated 10-20 minutes, arachidonic acid 10 μM, stopped after ten minutes, pH 8.0
T1 construct: A 2.0 kb fragment containing the coding region of either human or murine COX-1 or human or murine COX-2; made in house; host or cells: SF9 insect cells (baculovirus, transfer vector pVL1393)
T1 sequence (P35354 18-604): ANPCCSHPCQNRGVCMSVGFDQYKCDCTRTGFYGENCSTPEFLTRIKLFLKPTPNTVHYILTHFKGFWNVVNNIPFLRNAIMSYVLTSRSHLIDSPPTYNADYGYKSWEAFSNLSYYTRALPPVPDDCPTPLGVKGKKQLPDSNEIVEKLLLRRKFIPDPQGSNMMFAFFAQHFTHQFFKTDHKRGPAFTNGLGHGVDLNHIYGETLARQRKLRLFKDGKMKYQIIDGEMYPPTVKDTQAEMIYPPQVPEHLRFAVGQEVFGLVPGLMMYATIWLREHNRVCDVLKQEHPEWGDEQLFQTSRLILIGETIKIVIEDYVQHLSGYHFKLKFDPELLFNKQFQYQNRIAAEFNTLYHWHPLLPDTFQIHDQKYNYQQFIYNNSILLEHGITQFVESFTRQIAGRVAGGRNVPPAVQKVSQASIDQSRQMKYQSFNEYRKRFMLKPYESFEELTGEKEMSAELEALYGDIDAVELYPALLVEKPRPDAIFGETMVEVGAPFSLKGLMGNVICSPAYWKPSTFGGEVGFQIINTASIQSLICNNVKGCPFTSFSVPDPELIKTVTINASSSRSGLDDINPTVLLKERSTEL
Procedure: The COX-2 inhibition activity of the compounds of this invention illustrated in the Examples was determined by the following methods.
(§1) Recombinant COX-1 and COX-2 were prepared as described by Gierse et al, [J. Biochem., 305, 479-84 (1995)]. A 2.0 kb fragment containing the coding region of either human or murine COX-1 or human or murine COX-2 was cloned into a BamH1 site of the baculovirus transfer vector pVL1393 (Invitrogen) to generate the baculovirus transfer vectors for COX-1 and COX-2 in a manner similar to the method of D. R. O'Reilly et al (Baculovirus Expression Vectors: A Laboratory Manual (1992)). Recombinant baculoviruses were isolated by transfecting 4 μg of baculovirus transfer vector DNA into SF9 insect cells (2×10^8) along with 200 ng of linearized baculovirus plasmid DNA by the calcium phosphate method. See M. D. Summers and G. E. Smith, A Manual of Methods for Baculovirus Vectors and Insect Cell Culture Procedures, Texas Agric. Exp. Station Bull. 1555 (1987). Recombinant viruses were purified by three rounds of plaque purification and high titer (10^7-10^8 pfu/mL) stocks of virus were prepared. For large scale production, SF9 insect cells were infected in 10 liter fermentors (0.5×10^6/mL) with the recombinant baculovirus stock such that the multiplicity of infection was 0.1. After 72 hours the cells were centrifuged and the cell pellet homogenized in Tris/Sucrose (50 mM: 25%, pH 8.0) containing 1% 3-[(3-cholamidopropyl)dimethylammonio]-1-propanesulfonate (CHAPS). The homogenate was centrifuged at 10,000×G for 30 minutes, and the resultant supernatant was stored at −80° C. before being assayed for COX activity.
(§2) COX activity was assayed as PGE2 formed/μg protein/time using an ELISA to detect the prostaglandin released. CHAPS-solubilized insect cell membranes containing the appropriate COX enzyme were incubated in a potassium phosphate buffer (50 mM, pH 8.0) containing epinephrine, phenol, and heme with the addition of arachidonic acid (10 μM). Compounds were pre-incubated with the enzyme for 10-20 minutes prior to the addition of arachidonic acid. Any reaction between the arachidonic acid and the enzyme was stopped after ten minutes at 37° C./room temperature by transferring 40 μl of reaction mix into 160 μELISA buffer and 25 μM indomethacin. The PGE2 formed was measured by standard ELISA technology (Cayman Chemical).

[2] = target: T2, Human COX-1 (Homo sapiens, UniProt P23219); assay: Assay for COX-1 and COX-2 activity (PGE2 ELISA, recombinant enzyme), COX-1; type: biochemical; settings: Table I; pre-incubated 10-20 minutes, arachidonic acid 10 μM, stopped after ten minutes, pH 8.0
T2 construct: A 2.0 kb fragment containing the coding region of either human or murine COX-1 or human or murine COX-2; made in house; host or cells: SF9 insect cells (baculovirus, transfer vector pVL1393)
T2 sequence (P23219 24-599): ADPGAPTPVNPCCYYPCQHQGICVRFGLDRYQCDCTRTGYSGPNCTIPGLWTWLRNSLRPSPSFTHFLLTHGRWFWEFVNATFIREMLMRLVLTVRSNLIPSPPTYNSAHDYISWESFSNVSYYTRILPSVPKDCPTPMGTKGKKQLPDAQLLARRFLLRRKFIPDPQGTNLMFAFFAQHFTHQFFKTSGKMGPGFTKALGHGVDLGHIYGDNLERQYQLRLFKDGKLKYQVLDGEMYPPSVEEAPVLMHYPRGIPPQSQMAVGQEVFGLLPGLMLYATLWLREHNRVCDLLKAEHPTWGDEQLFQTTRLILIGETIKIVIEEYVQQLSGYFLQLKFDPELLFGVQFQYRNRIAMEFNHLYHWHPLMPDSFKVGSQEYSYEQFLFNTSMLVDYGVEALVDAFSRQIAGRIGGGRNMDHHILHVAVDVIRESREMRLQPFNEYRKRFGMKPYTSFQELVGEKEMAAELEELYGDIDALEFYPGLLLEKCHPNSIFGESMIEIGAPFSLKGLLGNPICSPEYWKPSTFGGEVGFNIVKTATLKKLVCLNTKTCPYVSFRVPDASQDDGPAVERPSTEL
Procedure: as §1, with “Recombinant” for “Recombinant COX-1 and COX-2 were prepared as described by Gierse et al, [J. Biochem., 305, 479-84 (1995)]. A 2.0 kb fragment containing the coding region of either human or murine COX-1 or human or murine COX-2 was cloned into a BamH1 site of the baculovirus transfer vector pVL1393 (Invitrogen) to generate the baculovirus transfer vectors for COX-1 and COX-2 in a manner similar to the method of D. R. O'Reilly et al (Baculovirus Expression Vectors: A Laboratory Manual (1992)). Recombinant”, “1555 (1987).” left out
as §2, with “Any reaction between the arachidonic acid and the enzyme was stopped after ten minutes at 37° C./room temperature by transferring 40 μl of reaction mix into 160 μELISA buffer and 25 μM indomethacin.” left out

[3] = target: T1, Human COX-2; assay: Fast assay for COX-1 and COX-2 activity (PGE2 ELISA), COX-2; type: biochemical; settings: Table II, pre-incubated 10 minutes at 25° C., arachidonic acid 10 μM, stopped after two minutes, pH 7.5
Procedure: as §1
(§3) COX activity was assayed as PGE2 formed/μg protein/time using an ELISA to detect the prostaglandin released. CHAPS-solubilized insect cell membranes containing the appropriate COX enzyme were incubated in a potassium phosphate buffer (0.05 M Potassium phosphate, pH 7.5, 2 μM phenol, 1 μM heme, 300 μM epinephrine) with the addition of 20 μl of 100 μM arachidonic acid (10 μM). Compounds were pre-incubated with the enzyme for 10 minutes at 25° C. prior to the addition of arachidonic acid. Any reaction between the arachidonic acid and the enzyme was stopped after two minutes at 37° C./room temperature by transferring 40 μl of reaction mix into 160 μl ELISA buffer and 25 μM indomethacin. The PGE2 formed was measured by standard ELISA technology (Cayman Chemical).

[4] = target: T2, Human COX-1; assay: Fast assay for COX-1 and COX-2 activity (PGE2 ELISA), COX-1; type: biochemical; settings: Table II, pre-incubated 10 minutes at 25° C., arachidonic acid 10 μM, stopped after two minutes, pH 7.5
Procedure: as §1, with “Recombinant” for “Recombinant COX-1 and COX-2 were prepared as described by Gierse et al, [J. Biochem., 305, 479-84 (1995)]. A 2.0 kb fragment containing the coding region of either human or murine COX-1 or human or murine COX-2 was cloned into a BamH1 site of the baculovirus transfer vector pVL1393 (Invitrogen) to generate the baculovirus transfer vectors for COX-1 and COX-2 in a manner similar to the method of D. R. O'Reilly et al (Baculovirus Expression Vectors: A Laboratory Manual (1992)). Recombinant”, “1555 (1987).” left out
as §3, with “Any reaction between the arachidonic acid and the enzyme was stopped after two minutes at 37° C./room temperature by transferring 40 μl of reaction mix into 160 μl ELISA buffer and 25 μM indomethacin.” left out

IC50 [1] [nM]	IC50 [2] [nM]	IC50 [3] [nM]	IC50 [4] [nM]	melting point [°C]	Structure (SMILES)
180	> 100000	140	> 100000	228 to 229	CS(=O)(=O)c1ccc(-c2cc(C(F)(F)F)nn2C2CCCCC2)cc1F [Example 12, 1-Cyclohexyl-5-[3-fluoro-4-(methylsulfonyl)phenyl]-3-(trifluoromethyl)-1H-pyrazole]
1050	> 100000	27	4360	129 to 130	Cc1cccc(-n2nc(C(F)(F)F)cc2-c2ccc(S(C)(=O)=O)c(F)c2)c1 [Example 17, 5-[3-Fluoro-4-(methylsulfonyl)phenyl]-1-(3-methylphenyl)-3-(trifluoromethyl)-1H-pyrazole]
62	> 100000	64	> 100000	110 to 112	CS(=O)(=O)c1ccc(-c2cc(C(F)(F)F)nn2-c2ccc(OC(F)(F)F)cc2)cc1F [Example 14, 5-[3-Fluoro-4-(methylsulfonyl)phenyl]-3-(trifluoromethyl)-1-[4-(trifluoromethoxy)phenyl]-1H-pyrazole]
